Data on 19 compounds can be found in patent publication US9994570B2, “Bridged diazepane orexin receptor antagonists” (MERCK SHARP & DOHME CORP., priority 2014, dated 2018).

The target in test [1] is T1, human orexin-2 receptor (Homo sapiens, UniProt O43614).
T1 construct: expressed in transfected cells; host or cells: CHO cells (grown under G418 selection)
T1 sequence (O43614 1-444): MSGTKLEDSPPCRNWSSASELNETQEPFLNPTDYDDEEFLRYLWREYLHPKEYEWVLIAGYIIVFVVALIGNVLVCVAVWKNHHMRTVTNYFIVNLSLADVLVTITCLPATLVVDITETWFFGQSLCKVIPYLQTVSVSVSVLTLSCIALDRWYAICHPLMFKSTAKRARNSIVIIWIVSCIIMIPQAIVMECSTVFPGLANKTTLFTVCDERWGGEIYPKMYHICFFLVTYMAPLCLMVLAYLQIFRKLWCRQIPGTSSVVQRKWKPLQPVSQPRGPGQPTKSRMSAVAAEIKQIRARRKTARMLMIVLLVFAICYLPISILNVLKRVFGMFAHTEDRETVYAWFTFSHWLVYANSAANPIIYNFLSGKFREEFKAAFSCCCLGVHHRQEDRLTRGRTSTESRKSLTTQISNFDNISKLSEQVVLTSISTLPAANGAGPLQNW
The experiment in a line: FLIPR Ca2+ flux assay, OX2R. The class given is cell-based. As to conditions: for IC50: CHO cells expressing the human orexin-2 receptor, agonist 70 pM Ala-6,12 orexin-A; for Fold Selective: OX1R FLIPR / OX2R FLIPR. As for the experimental part:
(§1) The utility of the compounds in accordance with the present invention as orexin receptor OX1R and/or OX2R antagonists may be readily determined without undue experimentation by methodology well known in the art, including the “FLIPR Ca^2+ Flux Assay” (Okumura et al., Biochem. Biophys. Res. Comm. 280:976-981, 2001). In a typical experiment the OX1 and OX2 receptor antagonistic activity of the compounds of the present invention was determined in accordance with the following experimental method. For intracellular calcium measurements, Chinese hamster ovary (CHO) cells expressing the rat orexin-1 receptor or the human orexin-2 receptor, are grown in Iscove's modified DMEM containing 2 mM L-glutamine, […], 1% hypoxanthine-thymidine supplement, 100 U/ml penicillin, 100 μg/ml streptomycin and 10% heat-inactivated fetal calf serum (FCS). The cells are seeded at 20,000 cells/well into Becton-Dickinson black 384-well clear bottom sterile plates coated with poly-D-lysine. All reagents were from GIBCO-Invitrogen Corp. The seeded plates are incubated overnight at 37° C. and 5% CO2. Ala-6,12 human orexin-A as the agonist is prepared as a 1 mM stock solution in 1% bovine serum albumin (BSA) and diluted in assay buffer (HBSS containing 20 mM HEPES, 0.1% BSA and 2.5 mM probenecid, pH7.4) for use in the assay at a final concentration of 70 pM. Test compounds are prepared as 10 mM stock solution in DMSO, then diluted in 384-well plates, first in DMSO, then assay buffer. On the day of the assay, cells are washed 3 times with 100 μl assay buffer and then incubated for 60 min (37° C., 5% CO2) in 60 μl assay buffer containing 1 μM Fluo-4AM ester, 0.02% pluronic acid, and 1% BSA. The dye loading solution is then aspirated and cells are washed 3 times with 100 μl assay buffer. 30 μl of that same buffer is left in each well. Within the Fluorescent Imaging Plate Reader (FLIPR, Molecular Devices), test compounds are added to the plate in a volume of 25 μl, incubated for 5 min and finally 25 μl of agonist is added. Fluorescence is measured for each well at 1 second intervals for 5 minutes and the height of each fluorescence peak is compared to the height of the fluorescence peak induced by 70 pM Ala-6,12 orexin-A with buffer in place of antagonist. For each antagonist, IC50 value (the concentration of compound needed to inhibit 50% of the agonist response) is determined. Alternatively, compound potency can be assessed by a radioligand binding assay (described in Bergman et. al. Bioorg. Med. Chem. Lett. 2008, 18, 1425-1430) in which the inhibition constant (Ki) is determined in membranes prepared from CHO cells expressing either the OX1 or OX2 receptor. The intrinsic orexin receptor antagonist activity of a compound which may be used in the present invention may be determined by these assays.

The target of test [2] is T2, rat orexin-1 receptor (Rattus norvegicus, UniProt P56718).
T2 construct: expressed in transfected cells; host or cells: CHO cells (grown under G418 selection)
T2 sequence (P56718 1-416): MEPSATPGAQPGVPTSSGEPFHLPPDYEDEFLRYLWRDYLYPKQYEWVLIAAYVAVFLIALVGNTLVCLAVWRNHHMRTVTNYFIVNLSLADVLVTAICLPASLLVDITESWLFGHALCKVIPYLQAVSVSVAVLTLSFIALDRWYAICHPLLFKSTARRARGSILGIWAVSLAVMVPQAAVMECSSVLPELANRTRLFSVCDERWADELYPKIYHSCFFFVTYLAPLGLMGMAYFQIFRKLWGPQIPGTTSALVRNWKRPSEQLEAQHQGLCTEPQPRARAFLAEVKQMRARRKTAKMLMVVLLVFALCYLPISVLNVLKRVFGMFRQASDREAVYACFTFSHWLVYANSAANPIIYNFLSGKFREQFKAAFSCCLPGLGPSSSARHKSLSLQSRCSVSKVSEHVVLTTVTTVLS
The experiment in a line: FLIPR Ca2+ flux assay, OX1R. The class given is cell-based. To be noted: CHO cells expressing the rat orexin-1 receptor; agonist 70 pM Ala-6,12 orexin-A. The protocol:
as §1

For `Cc1cc(C)nc(N2CC3CC2CN(C(=O)c2cccnc2N(C)CC(F)F)C3)n1` (single isomer, unassigned) [Example 47], in test [1], the IC50 amounted to 29 nM and the “Fold Selective” value came to 261. In test [2], this compound registered an IC50 of 7560 nM.

Turning to `Cc1cc(C#N)nc(N2CC3CC2CN(C(=O)c2ccccc2CC(F)(F)F)C3)n1` (stereo not drawn) [Example 1, 6-methyl-2-(3-(2-(2,2,2-trifluoroethyl)benzoyl)-3,6-diazabicyclo[3.2.1]octan-6-yl)pyrimidine-4-carbonitrile], in test [1], the IC50 was determined as 23 nM and the “Fold Selective” value is given as 81. The IC50 in test [2] came to 1870 nM.

For `Cc1cc(C#N)nc(N2CC3CC2CN(C(=O)c2ccccc2OC(F)F)C3)n1` (stereo not drawn) [Example 2, 2-(3-(2-(difluoromethoxy)benzoyl)-3,6-diazabicyclo[3.2.1]-octan-6-yl)-6-methylpyrimidine-4-carbonitrile], in test [1], the IC50 was 46 nM and the “Fold Selective” value was >217. In test [2], the IC50 was > 10000 nM.

With `Cc1cc(C#N)nc(N2CC3CC2CN(C(=O)c2ccccc2OCC(F)(F)F)C3)n1` (stereo not drawn) [Example 3, 6-methyl-2-(3-(2-(2,2,2-trifluoroethoxy)benzoyl)-3,6-diazabicyclo[3.2.1]octan-6-yl)pyrimidine-4-carbonitrile], in test [1], the IC50 came out at 18 nM and the “Fold Selective” value is 178. In test [2], the IC50 came to 3210 nM.

Take `Cc1cc(C#N)nc(N2CC3CC2CN(C(=O)c2cccnc2OCC(F)F)C3)n1` (stereo not drawn) [Example 4, 2-(3-{[2-(2,2-difluoroethoxy)pyridin-3-yl]carbonyl}-3,6-diazabicyclo[3.2.1]oct-6-yl)-6-methylpyrimidine-4-carbonitrile]: in test [1], the IC50 worked out at 19 nM and the “Fold Selective” value stood at 174. The IC50 in test [2] came to 3300 nM.

As for `Cc1cc(C#N)nc(N2CC3CC2CN(C(=O)c2cccnc2C2CC2)C3)n1` (stereo not drawn) [Example 5, 2-(3-(2-cyclopropylnicotinoyl)-3,6-diazabicyclo[3.2.1]octan-6-yl)-6-methylpyrimidine-4-carbonitrile], in test [1], the IC50 is 81 nM and the “Fold Selective” value is recorded as >123. Besides, the IC50 in test [2] was > 10000 nM.

Consider `Cc1cc(C#N)nc(N2CC3CC2CN(C(=O)c2ccccc2CS(C)(=O)=O)C3)n1` (stereo not drawn) [Example 7, 6-methyl-2-(3-(2-((methylsulfonyl)methyl)benzoyl)-3,6-diazabicyclo[3.2.1]octan-6-yl)pyrimidine-4-carbonitrile], for which, in test [1], the IC50 came out at 61 nM and the “Fold Selective” value is reported as >164. For the same compound, the IC50 in test [2] is > 10000 nM.

Regarding `Cc1cc(C)nc(N2CC3CC2CN(C(=O)c2cc(F)cnc2C2CC2)C3)n1` (stereo not drawn) [Example 8], in test [1], the IC50 amounted to 29 nM and the “Fold Selective” value came out at 202. The IC50 in test [2] was 5860 nM.

In the case of `Cc1cc(C)nc(N2CC3CC2CN(C(=O)c2cccnc2OCC(F)F)C3)n1` (stereo not drawn) [Example 9, (2-(2,2-difluoroethoxy)pyridin-3-yl)(6-(4,6-dimethylpyrimidin-2-yl)-3,6-diazabicyclo[3.2.1]octan-3-yl)methanone], in test [1], the IC50 worked out at 15 nM and the “Fold Selective” value is recorded as 122. The compound further had an IC50 in test [2] of 1830 nM.

On to `COCc1ccccc1C(=O)N1CC2CC(C1)N(c1nc(C)cc(C)n1)C2` (stereo not drawn) [Example 10, (6-(4,6-dimethylpyrimidin-2-yl)-3,6-diazabicyclo[3.2.1]octan-3-yl)(2-(methoxymethyl)phenyl)methanone], for which, in test [1], the IC50 amounted to 46 nM and the “Fold Selective” value was found to be 74. In test [2], this compound came in with an IC50 of 3410 nM.

As for `Cc1cc(C)nc(N2CC3CC2CN(C(=O)c2ccccc2C2CC2)C3)n1` (stereo not drawn) [Example 11, 3-[(2-cyclopropylphenyl)-carbonyl]-6-(4,6-dimethylpyrimidin-2-yl)-3,6-diazabicyclo[3.2.1]octane], in test [1], the IC50 was determined as 13 nM and the “Fold Selective” value was determined as 47. Also, the IC50 in test [2] was 613 nM.

As to `Cc1cc(C)nc(N2CC3CC2CN(C(=O)c2cc(F)ccc2C2CC2)C3)n1` (stereo not drawn) [Example 12, 3-[(2-cyclopropyl-5-fluorophenyl)carbonyl]-6-(4,6-dimethylpyrimidin-2-yl)-3,6-diazabicyclo[3.2.1]octane], the IC50 stood at 22 nM in test [1] and 1040 nM in test [2]. In addition, the “Fold Selective” value in test [1] was determined as 47.

`COc1ccc(C(=O)N2CC3CC(C2)N(c2nc(C)cc(C)n2)C3)c(C2CC2)n1` (stereo not drawn) [Example 13, 3-[(2-cyclopropyl-6-methoxypyridin-3-yl)carbonyl]-6-(4,6-dimethylpyrimidin-2-yl)-3,6-diazabicyclo[3.2.1]octane]: the results for the IC50 in test [1] and in test [2] were 41 nM and 3550 nM, respectively. Further, in test [1], the “Fold Selective” value was determined as 87.

Turning to `Cc1cc(C)nc(N2CC3CC2CN(C(=O)c2ccc(F)cc2C2CC2)C3)n1` (stereo not drawn) [Example 14, 3-[(2-cyclopropyl-4-fluorophenyl)carbonyl]-6-(4,6-dimethylpyrimidin-2-yl)-3,6-diazabicyclo[3.2.1]octane], in test [1], the IC50 amounted to 26 nM and the “Fold Selective” value turned out to be 56. The compound also yielded an IC50 in test [2] of 1450 nM.

As for `Cc1cc(C)nc(N2CC3CC2CN(C(=O)c2ccccc2OC(F)(F)F)C3)n1` (stereo not drawn) [Example 15, 6-(4,6-dimethylpyrimidin-2-yl)-3-{[2-(trifluoromethoxy)-phenyl]carbonyl}-3,6-diazabicyclo[3.2.1]octane], in test [1], the half-inhibitory concentration (IC50) was 30 nM and the “Fold Selective” value came out at 51. This compound registered an IC50 in test [2] of 1530 nM.

For the compound `Cc1cc(C)nc(N2CC3CC2CN(C(=O)c2ccccc2OC(C)C)C3)n1` (stereo not drawn) [Example 16, 6-(4,6-dimethylpyrimidin-2-yl)-3-{[2-(1-methylethoxy)-phenyl]carbonyl}-3,6-diazabicyclo[3.2.1]octane], in test [1], the IC50 worked out at 16 nM and the “Fold Selective” value came to 61. For the same compound, the IC50 in test [2] worked out at 982 nM.

Regarding `CSc1ccccc1C(=O)N1CC2CC(C1)N(c1nc(C)cc(C)n1)C2` (stereo not drawn) [Example 17, 6-(4,6-dimethylpyrimidin-2-yl)-3-{[2-(methylsulfanyl)-phenyl]carbonyl}-3,6-diazabicyclo[3.2.1]octane], the IC50 in test [1] is 27 nM; in test [2], 2470 nM. For the same compound, the “Fold Selective” value in test [1] was found to be 92.

As to `Cc1cc(C)nc(N2CC3CC2CN(C(=O)c2ccccc2C2(F)CC2)C3)n1` (stereo not drawn) [Example 18, 6-(4,6-dimethylpyrimidin-2-yl)-3-{[2-(1-fluorocyclopropyl)-phenyl]carbonyl}-3,6-diazabicyclo[3.2.1]octane], the IC50 in test [1] is 15 nM; in test [2], 872 nM. Moreover, the “Fold Selective” value in test [1] is reported as 58.

As to `Cc1cc(C)nc(N2CC3CC2CN(C(=O)c2ccccc2-n2ncnn2)C3)n1` (stereo not drawn) [Example 19, 6-(4,6-dimethylpyrimidin-2-yl)-3-{[2-(2H-tetrazol-2-yl)phenyl]carbonyl}-3,6-diazabicyclo[3.2.1]octane], in test [1], the IC50 turned out to be 36 nM and the “Fold Selective” value turned out to be 44. Further, the IC50 in test [2] was 1600 nM.
